In ChEMBL document CHEMBL1201861, “Genomics of Drug Sensitity in Cancer screening data, Wellcome Trust Sanger Institute”:

system: RKO; experiment: cells; format: functional, cell-based, Homo sapiens; details: Homo sapiens, RKO;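 note: growth inhibition of human RKO cells, read out with a cell viability assay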
Description: SANGER: Inhibition of human RKO cell growth in a cell viability assay.

Row | SMILES | IC50
1 | C/C(=C\c1csc(C)n1)[C@@H]1C[C@@H]2O[C@]2(C)CCC[C@H](C)[C@H](O)[C@@H](C)C(=O)C(C)(C)[C@@H](O)CC(=O)O1 [PATUPILONE] | 0.0647 nM

system: KU812 cell line; experiment: cells; format: functional, cell-based, Homo sapiens; details: Homo sapiens, KU812;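 note: growth inhibition of KU812 cells, read out with a cell viability assay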
Description: SANGER: Inhibition of human KU812 cell growth in a cell viability assay.

Row | SMILES | IC50
2 | C/C(=C\c1csc(C)n1)[C@@H]1C[C@@H]2O[C@]2(C)CCC[C@H](C)[C@H](O)[C@@H](C)C(=O)C(C)(C)[C@@H](O)CC(=O)O1 [PATUPILONE] | 3.45 nM

system: J-RT3-T3-5; experiment: cells; format: functional, cell-based, Homo sapiens; details: Homo sapiens, J-RT3-T3-5;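 note: cell viability assay measuring growth inhibition of human J-RT3-T3-5 cells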
Description: SANGER: Inhibition of human J-RT3-T3-5 cell growth in a cell viability assay.

Row | SMILES | IC50
3 | C/C(=C\c1csc(C)n1)[C@@H]1C[C@@H]2O[C@]2(C)CCC[C@H](C)[C@H](O)[C@@H](C)C(=O)C(C)(C)[C@@H](O)CC(=O)O1 [PATUPILONE] | 13.5 nM

system: NCI-H446; experiment: cells; format: functional, cell-based, Homo sapiens; details: Homo sapiens, NCI-H446;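 note: growth inhibition of NCI-H446 cells determined by a cell viability assay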
Description: SANGER: Inhibition of human NCI-H446 cell growth in a cell viability assay.

Row | SMILES | IC50
4 | C/C(=C\c1csc(C)n1)[C@@H]1C[C@@H]2O[C@]2(C)CCC[C@H](C)[C@H](O)[C@@H](C)C(=O)C(C)(C)[C@@H](O)CC(=O)O1 [PATUPILONE] | 21.4 nM

system: KG-1; experiment: cells; format: functional, cell-based, Homo sapiens; details: Homo sapiens, KG-1;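 note: growth inhibition of KG-1 cells, read out by a cell viability assay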
Description: SANGER: Inhibition of human KG-1 cell growth in a cell viability assay.

Row | SMILES | IC50
5 | C/C(=C\c1csc(C)n1)[C@@H]1C[C@@H]2O[C@]2(C)CCC[C@H](C)[C@H](O)[C@@H](C)C(=O)C(C)(C)[C@@H](O)CC(=O)O1 [PATUPILONE] | 5.1 nM

system: KY821; experiment: cells; format: functional, cell-based, Homo sapiens; details: Homo sapiens, KY821;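 note: growth inhibition of human KY821 cells, read out by a cell viability assay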
Description: SANGER: Inhibition of human KY821 cell growth in a cell viability assay.

Row | SMILES | IC50
6 | C/C(=C\c1csc(C)n1)[C@@H]1C[C@@H]2O[C@]2(C)CCC[C@H](C)[C@H](O)[C@@H](C)C(=O)C(C)(C)[C@@H](O)CC(=O)O1 [PATUPILONE] | > 32 nM

system: SK-MEL-2; experiment: cells; format: functional, cell-based, Homo sapiens; details: Homo sapiens, SK-MEL-2;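 note: growth inhibition of human SK-MEL-2 cells measured with a cell viability assay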
Description: SANGER: Inhibition of human SK-MEL-2 cell growth in a cell viability assay.

Row | SMILES | IC50
7 | C/C(=C\c1csc(C)n1)[C@@H]1C[C@@H]2O[C@]2(C)CCC[C@H](C)[C@H](O)[C@@H](C)C(=O)C(C)(C)[C@@H](O)CC(=O)O1 [PATUPILONE] | 7.19 nM

system: NCI-H1092; experiment: cells; format: functional, cell-based, Homo sapiens; details: Homo sapiens, NCI-H1092;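 note: cell growth inhibition measured with a cell viability assay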
Description: SANGER: Inhibition of human NCI-H1092 cell growth in a cell viability assay.

Row | SMILES | IC50
8 | C/C(=C\c1csc(C)n1)[C@@H]1C[C@@H]2O[C@]2(C)CCC[C@H](C)[C@H](O)[C@@H](C)C(=O)C(C)(C)[C@@H](O)CC(=O)O1 [PATUPILONE] | > 32 nM

system: JVM-3; experiment: cells; format: functional, cell-based, Homo sapiens; details: Homo sapiens, JVM-3;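 note: growth inhibition of human JVM-3 cells, read out with a cell viability assay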
Description: SANGER: Inhibition of human JVM-3 cell growth in a cell viability assay.

Row | SMILES | IC50
9 | C/C(=C\c1csc(C)n1)[C@@H]1C[C@@H]2O[C@]2(C)CCC[C@H](C)[C@H](O)[C@@H](C)C(=O)C(C)(C)[C@@H](O)CC(=O)O1 [PATUPILONE] | > 32 nM

system: CGTH-W-1; experiment: cells; format: functional, cell-based, Homo sapiens; details: Homo sapiens, CGTH-W-1;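 note: growth inhibition of human CGTH-W-1 cells measured by cell viability assay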
Description: SANGER: Inhibition of human CGTH-W-1 cell growth in a cell viability assay.

Row | SMILES | IC50
10 | C/C(=C\c1csc(C)n1)[C@@H]1C[C@@H]2O[C@]2(C)CCC[C@H](C)[C@H](O)[C@@H](C)C(=O)C(C)(C)[C@@H](O)CC(=O)O1 [PATUPILONE] | 2.8 nM

system: COLO-824; experiment: cells; format: functional, cell-based, Homo sapiens; details: Homo sapiens, COLO-824
Description: SANGER: Inhibition of human COLO-824 cell growth in a cell viability assay.

Row | SMILES | IC50
11 | C/C(=C\c1csc(C)n1)[C@@H]1C[C@@H]2O[C@]2(C)CCC[C@H](C)[C@H](O)[C@@H](C)C(=O)C(C)(C)[C@@H](O)CC(=O)O1 [PATUPILONE] | 23.3 nM

system: BB65-RCC; experiment: cells; format: functional, cell-based, Homo sapiens; details: Homo sapiens, BB65-RCC;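 note: growth inhibition of the cell line, measured with a cell viability assay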
Description: SANGER: Inhibition of human BB65-RCC cell growth in a cell viability assay.

Row | SMILES | IC50
12 | C/C(=C\c1csc(C)n1)[C@@H]1C[C@@H]2O[C@]2(C)CCC[C@H](C)[C@H](O)[C@@H](C)C(=O)C(C)(C)[C@@H](O)CC(=O)O1 [PATUPILONE] | 0.631 nM

system: TE-5; experiment: cells; format: functional, cell-based, Homo sapiens; details: Homo sapiens, TE-5;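 note: inhibition of cell growth, read out by a cell viability assay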
Description: SANGER: Inhibition of human TE-5 cell growth in a cell viability assay.

Row | SMILES | IC50
13 | C/C(=C\c1csc(C)n1)[C@@H]1C[C@@H]2O[C@]2(C)CCC[C@H](C)[C@H](O)[C@@H](C)C(=O)C(C)(C)[C@@H](O)CC(=O)O1 [PATUPILONE] | 3.04 nM

system: NOS-1; experiment: cells; format: functional, cell-based, Homo sapiens; details: Homo sapiens, NOS-1;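 note: growth inhibition of the human NOS-1 cell line, read out with a cell viability assay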
Description: SANGER: Inhibition of human NOS-1 cell growth in a cell viability assay.

Row | SMILES | IC50
14 | C/C(=C\c1csc(C)n1)[C@@H]1C[C@@H]2O[C@]2(C)CCC[C@H](C)[C@H](O)[C@@H](C)C(=O)C(C)(C)[C@@H](O)CC(=O)O1 [PATUPILONE] | 2.72 nM

system: TE-11; experiment: cells; format: functional, cell-based; details: Homo sapiens;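 note: growth inhibition of human TE-11 cells, read out by a cell viability assay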
Description: SANGER: Inhibition of human TE-11 cell growth in a cell viability assay.

Row | SMILES | IC50
15 | C/C(=C\c1csc(C)n1)[C@@H]1C[C@@H]2O[C@]2(C)CCC[C@H](C)[C@H](O)[C@@H](C)C(=O)C(C)(C)[C@@H](O)CC(=O)O1 [PATUPILONE] | 1.2 nM

system: SNU1; experiment: cells; format: functional, cell-based, Homo sapiens; details: Homo sapiens, SNU1;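 note: growth inhibition of human NCI-SNU-1 cells, measured with a cell viability assay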
Description: SANGER: Inhibition of human NCI-SNU-1 cell growth in a cell viability assay.

Row | SMILES | IC50
16 | C/C(=C\c1csc(C)n1)[C@@H]1C[C@@H]2O[C@]2(C)CCC[C@H](C)[C@H](O)[C@@H](C)C(=O)C(C)(C)[C@@H](O)CC(=O)O1 [PATUPILONE] | > 32 nM

system: KNS-81-FD; experiment: cells; format: functional, cell-based, Homo sapiens; details: Homo sapiens, KNS-81-FD;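 note: growth inhibition of KNS-81-FD cells, read out with a cell viability assay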
Description: SANGER: Inhibition of human KNS-81-FD cell growth in a cell viability assay.

Row | SMILES | IC50
17 | C/C(=C\c1csc(C)n1)[C@@H]1C[C@@H]2O[C@]2(C)CCC[C@H](C)[C@H](O)[C@@H](C)C(=O)C(C)(C)[C@@H](O)CC(=O)O1 [PATUPILONE] | > 32 nM

system: MZ1-PC; experiment: cells; format: functional, cell-based, Homo sapiens; details: Homo sapiens, MZ1-PC;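 note: cell viability assay measuring growth inhibition of human MZ1-PC cells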
Description: SANGER: Inhibition of human MZ1-PC cell growth in a cell viability assay.

Row | SMILES | IC50
18 | C/C(=C\c1csc(C)n1)[C@@H]1C[C@@H]2O[C@]2(C)CCC[C@H](C)[C@H](O)[C@@H](C)C(=O)C(C)(C)[C@@H](O)CC(=O)O1 [PATUPILONE] | 0.607 nM

system: ES3; experiment: cells; format: functional, cell-based, Homo sapiens; details: Homo sapiens, ES3;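 note: growth inhibition of ES3 cells, read out with a cell viability assay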
Description: SANGER: Inhibition of human ES3 cell growth in a cell viability assay.

Row | SMILES | IC50
19 | C/C(=C\c1csc(C)n1)[C@@H]1C[C@@H]2O[C@]2(C)CCC[C@H](C)[C@H](O)[C@@H](C)C(=O)C(C)(C)[C@@H](O)CC(=O)O1 [PATUPILONE] | 15 nM

system: KARPAS-299; experiment: cells; format: functional, cell-based, Homo sapiens; details: Homo sapiens, KARPAS-299
Description: SANGER: Inhibition of human KARPAS-299 cell growth in a cell viability assay.

Row | SMILES | IC50
20 | C/C(=C\c1csc(C)n1)[C@@H]1C[C@@H]2O[C@]2(C)CCC[C@H](C)[C@H](O)[C@@H](C)C(=O)C(C)(C)[C@@H](O)CC(=O)O1 [PATUPILONE] | > 32 nM

system: OCI-AML2; experiment: cells; format: functional, cell-based, Homo sapiens; details: Homo sapiens, OCI-AML2;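 note: growth inhibition of OCI-AML2 cells, read out with a cell viability assay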
Description: SANGER: Inhibition of human OCI-AML2 cell growth in a cell viability assay.

Row | SMILES | IC50
21 | C/C(=C\c1csc(C)n1)[C@@H]1C[C@@H]2O[C@]2(C)CCC[C@H](C)[C@H](O)[C@@H](C)C(=O)C(C)(C)[C@@H](O)CC(=O)O1 [PATUPILONE] | 3.07 nM

system: BT-474; experiment: cells; format: functional, cell-based, Homo sapiens; details: Homo sapiens, BT-474
Description: SANGER: Inhibition of human BT-474 cell growth in a cell viability assay.

Row | SMILES | IC50
22 | C/C(=C\c1csc(C)n1)[C@@H]1C[C@@H]2O[C@]2(C)CCC[C@H](C)[C@H](O)[C@@H](C)C(=O)C(C)(C)[C@@H](O)CC(=O)O1 [PATUPILONE] | 13.2 nM

system: TGBC1TKB; experiment: cells; format: functional, cell-based, Homo sapiens; details: Homo sapiens, TGBC1TKB;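 note: growth inhibition of TGBC1TKB cells, read out by a cell viability assay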
Description: SANGER: Inhibition of human TGBC1TKB cell growth in a cell viability assay.

Row | SMILES | IC50
23 | C/C(=C\c1csc(C)n1)[C@@H]1C[C@@H]2O[C@]2(C)CCC[C@H](C)[C@H](O)[C@@H](C)C(=O)C(C)(C)[C@@H](O)CC(=O)O1 [PATUPILONE] | > 32 nM

system: ES1; experiment: cells; format: functional, cell-based, Homo sapiens; details: Homo sapiens, ES1;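 note: growth inhibition of ES1 cells, read out with a cell viability assay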
Description: SANGER: Inhibition of human ES1 cell growth in a cell viability assay.

Row | SMILES | IC50
24 | C/C(=C\c1csc(C)n1)[C@@H]1C[C@@H]2O[C@]2(C)CCC[C@H](C)[C@H](O)[C@@H](C)C(=O)C(C)(C)[C@@H](O)CC(=O)O1 [PATUPILONE] | 0.221 nM

system: UACC-257; experiment: cells; format: functional, cell-based, Homo sapiens; details: Homo sapiens, UACC-257
Description: SANGER: Inhibition of human UACC-257 cell growth in a cell viability assay.

Row | SMILES | IC50
25 | C/C(=C\c1csc(C)n1)[C@@H]1C[C@@H]2O[C@]2(C)CCC[C@H](C)[C@H](O)[C@@H](C)C(=O)C(C)(C)[C@@H](O)CC(=O)O1 [PATUPILONE] | 29.7 nM
